Laboratory results as given in US20230416248A1, “COMPOUNDS AND USES THEREOF” (Foghorn Therapeutics Inc., priority 2020, published 2023).
Read-outs that look alike come from different tables or passages of the source.

Columns and labels:
[1] = target: T1, BRM (Homo sapiens, UniProt P51531); assay: ATPase catalytic activity of BRM, ADP-Glo in vitro biochemical assay; details: for IC50: 30 nM BRM, 400 μM ATP; for Ratio* (BRG1 IC50 (μM) divided by BRM IC50 (μM)): selectivity ratio BRG1 IC50 / BRM IC50
T1 construct: made in house; host or cells: High Five insect cells
T1 sequence (P51531 whole entry): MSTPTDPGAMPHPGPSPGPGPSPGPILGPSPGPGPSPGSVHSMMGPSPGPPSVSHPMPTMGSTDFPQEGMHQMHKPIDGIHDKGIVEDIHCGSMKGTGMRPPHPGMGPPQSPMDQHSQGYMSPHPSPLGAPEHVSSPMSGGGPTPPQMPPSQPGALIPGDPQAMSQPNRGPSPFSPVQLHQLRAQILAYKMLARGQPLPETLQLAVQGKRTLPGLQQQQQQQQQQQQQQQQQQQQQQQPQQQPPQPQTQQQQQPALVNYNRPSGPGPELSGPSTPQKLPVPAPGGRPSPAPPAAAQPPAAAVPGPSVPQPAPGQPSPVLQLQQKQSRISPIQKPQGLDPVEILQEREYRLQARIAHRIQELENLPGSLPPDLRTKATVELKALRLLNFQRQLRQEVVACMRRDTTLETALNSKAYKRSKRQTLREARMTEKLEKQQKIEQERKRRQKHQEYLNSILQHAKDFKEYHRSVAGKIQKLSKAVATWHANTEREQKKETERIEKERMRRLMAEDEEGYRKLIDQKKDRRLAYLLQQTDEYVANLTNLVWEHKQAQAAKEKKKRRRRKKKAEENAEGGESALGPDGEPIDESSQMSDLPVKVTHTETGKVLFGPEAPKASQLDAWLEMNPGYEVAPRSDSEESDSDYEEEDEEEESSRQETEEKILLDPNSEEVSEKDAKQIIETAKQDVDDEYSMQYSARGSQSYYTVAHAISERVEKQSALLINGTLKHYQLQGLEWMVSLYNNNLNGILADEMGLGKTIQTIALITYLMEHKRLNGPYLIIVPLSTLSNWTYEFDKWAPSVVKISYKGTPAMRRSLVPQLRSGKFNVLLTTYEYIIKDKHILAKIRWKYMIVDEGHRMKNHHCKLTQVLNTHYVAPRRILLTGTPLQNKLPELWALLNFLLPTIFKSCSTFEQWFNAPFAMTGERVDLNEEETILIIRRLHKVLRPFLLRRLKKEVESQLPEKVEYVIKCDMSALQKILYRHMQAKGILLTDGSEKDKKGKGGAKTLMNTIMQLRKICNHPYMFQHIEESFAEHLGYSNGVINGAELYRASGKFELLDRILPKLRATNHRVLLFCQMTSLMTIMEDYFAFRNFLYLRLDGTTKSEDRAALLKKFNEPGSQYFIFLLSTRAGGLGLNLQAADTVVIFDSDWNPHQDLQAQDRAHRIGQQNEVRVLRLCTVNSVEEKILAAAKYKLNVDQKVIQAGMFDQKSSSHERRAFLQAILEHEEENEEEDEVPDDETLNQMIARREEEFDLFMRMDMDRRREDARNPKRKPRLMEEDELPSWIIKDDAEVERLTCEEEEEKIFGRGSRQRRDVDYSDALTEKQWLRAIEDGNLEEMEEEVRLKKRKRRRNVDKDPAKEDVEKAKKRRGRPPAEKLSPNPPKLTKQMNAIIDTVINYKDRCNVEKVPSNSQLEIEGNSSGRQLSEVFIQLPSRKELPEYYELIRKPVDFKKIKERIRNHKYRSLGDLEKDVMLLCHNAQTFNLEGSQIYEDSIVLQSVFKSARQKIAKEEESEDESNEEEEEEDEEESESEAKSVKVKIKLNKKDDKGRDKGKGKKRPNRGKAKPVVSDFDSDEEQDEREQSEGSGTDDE
Experimental: (§1) The ATPase catalytic activity of BRM or BRG-1 was measured by an in vitro biochemical assay using ADP-Glo™ (Promega, V9102). The ADP-Glo™ kinase assay is performed in two steps once the reaction is complete. The first step is to deplete any unconsumed ATP in the reaction. The second step is to convert the reaction product ADP to ATP, which will be utilized by the luciferase to generate luminesce and be detected by a luminescence reader, such as Envision.
The assay reaction mixture ([…]) contains 30 nM of BRM or BRG-1, 20 nM salmon sperm DNA (from Invitrogen, UfraPure™ Salmon Sperm DNA Solution, cat #15632011), and 400 μM of ATP in the ATPase assay buffer, which comprises of 20 mM Tris, pH 8, 20 mM MgCl2, 50 mM NaCl, 0.1% Tween-20, and 1 mM fresh DTT (Piercer™ DTT (Dithiothreitol), cat #20290). The reaction is initiated by the addition of the 2.5 μL ATPase solution to 2.5 μL ATP/DNA solution on low volume white Proxiplate-384 plus plate (PerkinElmer, cat #6008280) and incubates at room temperature for 1 hour. Then, following addition of 5 μL of ADP-Glo™ Reagent provided in the kit, the reaction incubates at room temperature for 40 minutes. Then, 10 μL of Kinase Detection Reagent provided in the kit is added to convert ADP to ATP, and the reaction incubates at room temperature for 60 minutes. Finally, luminescence measurement is collected with a plate-reading luminometer, such as Envision.

[2] = target: T2, BRG-1 (Homo sapiens, UniProt P51532); assay: ATPase catalytic activity of BRG-1, ADP-Glo in vitro biochemical assay; details: 30 nM BRG-1, 400 μM ATP, read-out: BRG1 IC50
T2 construct: made in house; host or cells: High Five insect cells
T2 sequence (P51532 whole entry): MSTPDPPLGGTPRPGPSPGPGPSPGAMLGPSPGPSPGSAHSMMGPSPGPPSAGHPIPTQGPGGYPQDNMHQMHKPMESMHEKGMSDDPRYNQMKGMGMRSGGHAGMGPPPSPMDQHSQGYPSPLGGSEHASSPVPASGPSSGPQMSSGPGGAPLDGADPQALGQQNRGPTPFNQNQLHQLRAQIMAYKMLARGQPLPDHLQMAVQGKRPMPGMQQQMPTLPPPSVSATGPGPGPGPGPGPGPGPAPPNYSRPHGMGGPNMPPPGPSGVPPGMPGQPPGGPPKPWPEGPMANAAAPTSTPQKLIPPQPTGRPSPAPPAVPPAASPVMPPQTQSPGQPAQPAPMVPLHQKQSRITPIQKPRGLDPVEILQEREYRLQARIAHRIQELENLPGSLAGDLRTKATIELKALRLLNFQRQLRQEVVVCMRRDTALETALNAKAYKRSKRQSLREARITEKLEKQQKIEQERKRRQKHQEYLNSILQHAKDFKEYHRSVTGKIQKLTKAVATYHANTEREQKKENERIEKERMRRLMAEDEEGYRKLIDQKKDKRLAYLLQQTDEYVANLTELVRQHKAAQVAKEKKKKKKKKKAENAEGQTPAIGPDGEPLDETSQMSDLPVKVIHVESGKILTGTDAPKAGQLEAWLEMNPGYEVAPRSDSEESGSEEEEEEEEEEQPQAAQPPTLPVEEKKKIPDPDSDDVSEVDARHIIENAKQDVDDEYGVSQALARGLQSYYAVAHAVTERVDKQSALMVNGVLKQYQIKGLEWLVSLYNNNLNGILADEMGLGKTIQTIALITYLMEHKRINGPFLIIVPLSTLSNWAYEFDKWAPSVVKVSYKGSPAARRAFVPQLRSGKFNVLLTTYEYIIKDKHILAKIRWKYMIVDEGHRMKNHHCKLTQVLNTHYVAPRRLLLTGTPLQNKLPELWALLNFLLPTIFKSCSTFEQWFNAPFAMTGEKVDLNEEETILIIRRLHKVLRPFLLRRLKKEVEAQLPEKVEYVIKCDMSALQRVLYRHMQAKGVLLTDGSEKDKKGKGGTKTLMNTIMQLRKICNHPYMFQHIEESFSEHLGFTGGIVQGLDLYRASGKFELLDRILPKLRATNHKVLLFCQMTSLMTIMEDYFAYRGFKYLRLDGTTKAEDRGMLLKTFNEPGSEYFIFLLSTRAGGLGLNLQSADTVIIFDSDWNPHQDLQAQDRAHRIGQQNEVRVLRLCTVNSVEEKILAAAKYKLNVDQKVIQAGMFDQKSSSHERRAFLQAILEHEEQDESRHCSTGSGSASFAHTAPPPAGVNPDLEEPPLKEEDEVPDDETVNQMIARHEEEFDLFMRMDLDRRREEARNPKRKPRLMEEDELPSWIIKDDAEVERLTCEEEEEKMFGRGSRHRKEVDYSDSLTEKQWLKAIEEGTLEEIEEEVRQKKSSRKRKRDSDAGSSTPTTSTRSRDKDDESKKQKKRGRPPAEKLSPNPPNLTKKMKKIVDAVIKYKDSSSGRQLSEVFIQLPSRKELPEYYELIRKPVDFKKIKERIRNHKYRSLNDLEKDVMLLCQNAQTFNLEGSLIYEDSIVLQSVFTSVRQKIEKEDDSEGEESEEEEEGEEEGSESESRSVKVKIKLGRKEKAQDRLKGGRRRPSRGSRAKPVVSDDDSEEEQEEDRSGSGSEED
Experimental: as §1
Then, following addition of 5 μL of ADP-Glo™ Reagent provided in the kit, the reaction incubates at room temperature for 40 minutes. Then, 10 μL of Kinase Detection Reagent provided in the kit is added to convert ADP to ATP, and the reaction incubates at room temperature for 60 minutes. Finally, luminescence measurement is collected with a plate-reading luminometer, such as Envision.

[3] = ATPase catalytic activity, ADP-Glo

SMILES | IC50 [1, 3] [nM] | Ratio* ([1]; ratio of BRG1 IC50 to BRM IC50) | IC50 [2, 3] [nM] | IC50 ([1]; ADP-Glo ATPase assay) [nM] | Ratio* (BRG1 IC50 (μM) divided by BRM IC50 (μM)) [1] | IC50 ([2]; ADP-Glo ATPase assay) [nM] | Ratio* ([1]; ratio BRG1 IC50 / BRM IC50)
C[C@@H]1CN(c2cccc(-c3ccc4cnc(CNC(=O)c5cnc6c(c5)S(=O)(=O)CCC5CC65)cc4n3)n2)C[C@H](C)O1 (mixture of isomers) [Compound 528] | 7.9 | 4.24 | 33.6 | – | – | – | –
CC1COCc2ccc(C(=O)NCc3cc4nc(-c5cccc(N6CCC6)n5)ccc4cn3)cc2S1(=O)=O (single isomer, unassigned) [Compound 197] | – | – | – | 19.3 | 12.64 | 244 | –
CC1COCc2ccc(C(=O)NCc3cc4nc(-c5cccc(N6CCC6)n5)ccc4cn3)cc2S1(=O)=O (single isomer, unassigned) [Compound 199] | – | – | – | 252 | 9.56 | 2410 | –
C[C@@H]1CN(c2cccc(-c3ccc4cnc(CNC(=O)c5ccc6c(c5)S(=O)(=O)[C@@H](C)CCO6)cc4n3)n2)C[C@H](C)O1 [Compound 15] | – | – | – | 7.5 | 6.80 | 51.1 | –
C[C@@H]1CN(c2cccc(-c3ccc4cnc(CNC(=O)c5cc(F)c6c(c5)S(=O)(=O)CCCO6)cc4n3)n2)C[C@H](C)O1 [Compound 37] | – | – | – | 8.6 | 9.89 | 85 | –
C[C@@H]1CN(c2cccc(-c3ccc4nnc(CNC(=O)c5ccc(C(F)F)c(S(C)(=O)=O)c5)cc4n3)n2)C[C@H](C)O1 [Compound 40] | – | – | – | 8.9 | – | 88.4 | –
C[C@@H]1CN(c2cccc(-c3cnc4cnc(CNC(=O)c5ccc(Cl)c(S(C)(=O)=O)c5)cc4n3)n2)C[C@H](C)O1 [Compound 41] | – | – | – | 18.1 | 10.70 | 194 | –
CO[C@H]1C[C@H](N(C)c2cccc(-c3ccc4cnc(CNC(=O)c5ccc6c(c5)S(=O)(=O)CCOC6)cc4n3)n2)C1 [Compound 42] | – | – | – | 17.3 | 7.37 | 127 | –
Cn1ccc2c(-c3ccc4cnc(CNC(=O)c5ccc6c(c5)S(=O)(=O)CCOC6)cc4n3)ccc(Cl)c21 [Compound 43] | – | – | – | 19.8 | 9.33 | 185 | –
COC(C)(C)CN(C)c1cccc(-c2ccc3cnc(CNC(=O)c4ccc5c(c4)S(=O)(=O)CCOC5)cc3n2)n1 [Compound 44] | – | – | – | 90.5 | 7.67 | 694 | –
C[C@@H]1C=C(c2cccc(-c3ccc4cnc(CNC(=O)c5ccc6c(c5)S(=O)(=O)CCOC6)cc4n3)n2)C[C@H](C)O1 [Compound 45] | – | – | – | 5.1 | 3.87 | 19.8 | –
C[C@@H]1CC(c2cccc(-c3ccc4cnc(CNC(=O)c5ccc6c(c5)S(=O)(=O)CCOC6)cc4n3)n2)=C[C@H](C)O1 [Compound 46] | – | – | – | 9.3 | 4.92 | 45.9 | –
O=C(NCc1cc2nc(N3CCc4cccnc43)ccc2cn1)c1ccc2c(c1)S(=O)(=O)CCOC2 [Compound 47] | – | – | – | 74.5 | 6.12 | 457 | –
CC1CS(=O)(=O)c2cc(C(=O)NCc3cc4nc(-c5cccc(N6C[C@@H](C)O[C@@H](C)C6)n5)ccc4cn3)ccc2CO1 (some centres unmarked) [Compound 48] | – | – | – | 294 | 6.26 | 1840 | –
CCOc1cccc(-c2ccc3cnc(CNC(=O)c4cc(F)c5c(c4)S(=O)(=O)CCOC5)cc3n2)n1 [Compound 49] | – | – | – | 24.8 | 18.33 | 455 | –
O=C(NCc1cc2nc(N3CCc4ccccc43)ccc2cn1)c1ccc2c(c1)S(=O)(=O)CCOC2 [Compound 50] | – | – | – | 147 | – | 1520 | –
C[C@@H]1CN(c2cccc(-c3ccc4cnc(CNC(=O)c5ccc6c(c5)S(=O)(=O)CCN(C)C6)cc4n3)n2)C[C@H](C)O1 [Compound 51] | – | – | – | 34.9 | 5.74 | 200 | –
O=C(NCc1cc2nc(N3CCCc4ccncc43)ccc2cn1)c1ccc2c(c1)S(=O)(=O)CCOC2 [Compound 52] | – | – | – | 76 | 9.43 | 716 | –

SMILES | IC50 [1, 3] [nM] | Ratio* ([1]; ratio of BRG1 IC50 to BRM IC50) | IC50 [2, 3] [nM] | IC50 ([1]; ADP-Glo ATPase assay) [nM] | Ratio* (BRG1 IC50 (μM) divided by BRM IC50 (μM)) [1] | IC50 ([2]; ADP-Glo ATPase assay) [nM] | Ratio* ([1]; ratio BRG1 IC50 / BRM IC50)
C[C@@H]1CN(c2cccc(-c3ccc4cnc(CNC(=O)c5ccc6c(c5)S(=O)(=O)CCCO6)cc4n3)n2)C[C@H](C)O1 [Compound 53] | – | – | – | 11.7 | – | 116 | –
CC1OCCS(=O)(=O)c2cc(C(=O)NCc3cc4nc(-c5cccc(N6C[C@@H](C)O[C@@H](C)C6)n5)ccc4cn3)ccc21 (some centres unmarked) [Compound 54] | – | – | – | 9.5 | 4.70 | 44.7 | –
CO[C@H](C)CN(C)c1cccc(-c2ccc3cnc(CNC(=O)c4ccc5c(c4)S(=O)(=O)CCOC5)cc3n2)n1 [Compound 55] | – | – | – | 25.3 | 9.45 | 239 | –
C[C@@H]1CN(c2cccc(-c3cnc4cnc(CNC(=O)c5ccc(C(F)F)c(S(C)(=O)=O)c5)cc4n3)n2)C[C@H](C)O1 [Compound 56] | – | – | – | 13.6 | 17.62 | 240 | –
O=C(NCc1cc2nc(-c3cccc(N4CCC4)n3)ccc2nn1)c1ccc2c(c1)S(=O)(=O)CCOC2 [Compound 57] | – | – | – | 8 | – | 118 | –
O=C(NCc1cc2nc(-c3cccc4c3CN(CC(F)F)CC4)ccc2cn1)c1ccc2c(c1)S(=O)(=O)CCOC2 [Compound 675] | 884 | 5.66 | – | – | – | – | –
C[C@@H]1CN(c2cccc(-c3ccc4cnc(CNC(=O)c5ccc6c(c5)S(=O)(=O)[C@H](C)CO6)cc4n3)n2)C[C@H](C)O1 [Compound 684] | 484 | 10.33 | – | – | – | – | –
O=C(NCc1cc2nc(-c3cccc4c3CN(C3CC3)CC4)ccc2cn1)c1ccc2c(c1)S(=O)(=O)CCOC2 [Compound 685] | 715 | 6.99 | – | – | – | – | –
CS(=O)(=O)c1cc(C(=O)NCc2cc3nc(N4CCCc5ccc(C6CC6)nc54)ccc3cn2)cnc1C(F)F [Compound 721] | – | – | – | 188 | – | – | 26.60
O=C(NCc1cc2nc(C34CC3CCc3cccnc34)ccc2cn1)c1ccc2c(c1)S(=O)(=O)CCOC2 (centres unmarked) [Compound 762] | – | – | – | – | – | – | 1.00
O=C(NCc1cc2cc(N3CCOc4cc(C5CC5)cnc43)ncc2cn1)c1ccc2c(c1)S(=O)(=O)CCOC2 [Compound 811] | – | – | – | – | – | – | 1.00
Cn1cccc(-c2ccc3cnc(CNC(=O)c4ccc5c(c4)S(=O)(=O)CCOC5)cc3n2)c1=O [Compound 826] | – | – | – | 3200 | – | – | 1.56
COCCN(c1cc(C2CC2)ccn1)c1ccc2cnc(CNC(=O)c3ccc4c(c3)S(=O)(=O)CCOC4)cc2n1 [Compound 829] | – | – | – | 1660 | – | – | 3.02
COCCN(c1ccc(C2CC2)cn1)c1ccc2cnc(CNC(=O)c3ccc4c(c3)S(=O)(=O)CCOC4)cc2n1 [Compound 833] | – | – | – | 2320 | – | – | 2.15
COCCN(c1ccnc(C2CC2)n1)c1ccc2cnc(CNC(=O)c3ccc4c(c3)S(=O)(=O)CCOC4)cc2n1 [Compound 839] | – | – | – | – | – | – | 1.00
COCCN(c1cccc(C2CC2)n1)c1ccc2cnc(CNC(=O)c3ccc4c(c3)S(=O)(=O)CCOC4)cc2n1 [Compound 840] | – | – | – | 4000 | – | – | 1.25
O=C(NCc1cc2nc(-c3ccc(OC(F)F)cn3)ccc2cn1)c1ccc2c(c1)S(=O)(=O)CCOC2 [Compound 849] | – | – | – | 606 | – | – | 8.25
